Assay results from patent publication US20230085307A1, “PYRIDAZINONE COMPOUND AND HERBICIDE” (NISSAN CHEMICAL CORPORATION, priority 2019, published 2023).

Columns and labels:
late watergrass = assay: Test Example 1: herbicidal activity, application before weed generation under submerged conditions (Table 16, symbol A); type: in vivo, late watergrass (Echinochloa oryzicola); settings: 320 g/ha applied herbicide
Outline: (§1)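 Emulsion formulation, water-diluted to set dose, was put onto the flooded surface (4 cm depth, alluvial soil) the same day weeds were sown and 2.5-leaf rice transplanted. After 3 weeks at 25-30 °C under glass, each species was rated 0 (≤5% kill) to 5 (≥90% kill).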

Japanese bulrush = assay: Test Example 1: herbicidal activity, application before weed generation under submerged conditions (Table 16, symbol B); type: in vivo, Japanese bulrush (Schoenoplectus juncoides); settings: 320 g/ha applied herbicide
Outline: as §1

oval-leafed pondweed = assay: Test Example 1: herbicidal activity, application before weed generation under submerged conditions (Table 16, symbol C); type: in vivo, oval-leafed pondweed (Monochoria vaginalis); settings: 320 g/ha applied herbicide
Outline: as §1

barnyard grass = assay: Test Example 3: herbicidal effect by foliage application, Wagner pot (Table 18, symbol H); type: in vivo, barnyard grass (Echinochloa crus-galli); settings: for herbicidal effect on H (barnyard grass), rating 0-5: 320 g/ha; for herbicidal effect on H: barnyard grass: amount of applied herbicide 320 g/ha
Outline: (§2)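 Plants were sown in alluvial soil held under 0.1–0.5 cm standing water and grown 14 days in a greenhouse at 25–30 °C. An emulsifiable formulation, water-diluted to the set dose, was then sprayed onto the foliage, and effects were scored three weeks later using previously defined criteria.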

Chinese sprangletop = assay: Test Example 3: herbicidal effect by foliage application, Wagner pot (Table 18, symbol D); type: in vivo, chinese sprangletop (Leptochloa chinensis); settings: for herbicidal effect on D (Chinese sprangletop), rating 0-5: 320 g/ha; for herbicidal effect on D: Chinese sprangletop: amount of applied herbicide 320 g/ha
Outline: as §2

rice flat sedge = assay: Test Example 3: herbicidal effect by foliage application, Wagner pot (Table 18, symbol E); type: in vivo, rice flat sedge (Cyperus iria); settings: for herbicidal effect on E (rice flat sedge), rating 0-5: 320 g/ha; for herbicidal effect on E: rice flat sedge: amount of applied herbicide 320 g/ha
Outline: as §2

Italian ryegrass [1] = assay: Test Example 4: herbicidal effect by soil treatment (Table 19, symbol K); type: in vivo, Italian ryegrass (Lolium multiflorum); settings: for herbicidal effect rating, K: Italian ryegrass: 320 g/ha
Outline: (§3)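 Three weeks of greenhouse growth at 25° C. to 30° C. followed a uniform surface spray of water-diluted emulsion at a predetermined herbicide amount. Seeds had been sown beforehand under about 1.5 cm of sterilized diluvial soil. Grading followed criteria set out in an earlier test.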

windgrass = assay: Test Example 4: herbicidal effect by soil treatment (Table 19, symbol L); type: in vivo, windgrass (Apera spica-venti); settings: for herbicidal effect rating, L: windgrass: 320 g/ha
Outline: as §3

lambsquarters [2] = assay: Test Example 4: herbicidal effect by soil treatment (Table 19, symbol O); type: in vivo, lambsquarters (Chenopodium album); settings: for herbicidal effect rating, O: lambsquarters: 320 g/ha
Outline: as §3

chickweed = assay: Test Example 4: herbicidal effect by soil treatment (Table 19, symbol P); type: in vivo, common chickweed (Stellaria media); settings: for herbicidal effect rating, P: chickweed: 320 g/ha
Outline: as §3

southern crabgrass = assay: Test Example 5: herbicidal effect by foliage application, plastic box (Table 20, symbol F); type: in vivo, southern crabgrass (Digitaria ciliaris); settings: foliage application, evaluated three weeks after application; for herbicidal effect on F: southern crabgrass: 320 g/ha
Outline: (§4)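 Plants sown in sterilized diluvial soil and grown 14 days in a greenhouse at 25° C to 30° C, then sprayed on the foliage with the compound's emulsion diluted in water to a predetermined herbicide amount. Injury to weeds and crops scored three weeks after application on a visual rating scale.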

green foxtail = assay: Test Example 5: herbicidal effect by foliage application, plastic box (Table 20, symbol G); type: in vivo, green foxtail (Setaria viridis); settings: foliage application, evaluated three weeks after application; for herbicidal effect on G: green foxtail: 320 g/ha
Outline: as §4

wild oat = assay: Test Example 5: herbicidal effect by foliage application, plastic box (Table 20, symbol I); type: in vivo, wild oat (Avena fatua); settings: foliage application, evaluated three weeks after application; for herbicidal effect on I: wild oat: 320 g/ha
Outline: as §4

blackgrass = assay: Test Example 5: herbicidal effect by foliage application, plastic box (Table 20, symbol J); type: in vivo, blackgrass (Alopecurus myosuroides); settings: foliage application, evaluated three weeks after application; for herbicidal effect on J: blackgrass: 320 g/ha
Outline: as §4

Italian ryegrass [3] = assay: Test Example 5: herbicidal effect by foliage application, plastic box (Table 20, symbol K); type: in vivo, Italian ryegrass (Lolium multiflorum); settings: foliage application, evaluated three weeks after application; for herbicidal effect on K: Italian ryegrass: 320 g/ha
Outline: as §4

velvetleaf = assay: Test Example 5: herbicidal effect by foliage application, plastic box (Table 20, symbol M); type: in vivo, velvetleaf (Abutilon theophrasti); settings: foliage application, evaluated three weeks after application; for herbicidal effect on M: velvetleaf: 320 g/ha
Outline: as §4

lambsquarters [4] = assay: Test Example 5: herbicidal effect by foliage application, plastic box (Table 20, symbol O); type: in vivo, lambsquarters (Chenopodium album); settings: foliage application, evaluated three weeks after application; for herbicidal effect on O: lambsquarters: 320 g/ha
Outline: as §4

[5] = amount of applied herbicide 320 g/ha

SMILES	Herbicidal effect on A: late watergrass (grade 0-5) (late watergrass)	Herbicidal effect on B: Japanese bulrush (grade 0-5) (Japanese bulrush)	Herbicidal effect on C: oval-leafed pondweed (grade 0-5) (oval-leafed pondweed)	herbicidal effect on H (barnyard grass), rating 0-5 (barnyard grass)	herbicidal effect on D (Chinese sprangletop), rating 0-5 (Chinese sprangletop)	herbicidal effect on E (rice flat sedge), rating 0-5 (rice flat sedge)	herbicidal effect rating, K: Italian ryegrass (Italian ryegrass [1])	herbicidal effect rating, L: windgrass (windgrass)	herbicidal effect rating, O: lambsquarters (lambsquarters [2])	herbicidal effect rating, P: chickweed (chickweed)	herbicidal effect on F: southern crabgrass (southern crabgrass)	herbicidal effect on G: green foxtail (green foxtail)	herbicidal effect on I: wild oat (wild oat)	herbicidal effect on J: blackgrass (blackgrass)	herbicidal effect on K: Italian ryegrass (Italian ryegrass [3])	herbicidal effect on M: velvetleaf (velvetleaf)	herbicidal effect on O: lambsquarters (lambsquarters [4])	herbicidal effect on H: barnyard grass (barnyard grass)	herbicidal effect on D: Chinese sprangletop (Chinese sprangletop)	herbicidal effect on E: rice flat sedge (rice flat sedge)	other results
CCCC(=O)Oc1c(C)nn(C)c(=O)c1-c1c(-c2ccc(OC)c(F)c2)sc2ccc(F)cc12 [2-087]	5 (Herbicidal rate of 90% or more (almost completely withered))	4 (Herbicidal rate of 70% or more and less than 90%)	4 (Herbicidal rate of 70% or more and less than 90%)	3 (Herbicidal rate of 40% or more and less than 70%)	2 (Herbicidal rate of 20% or more and less than 40%)	5 (Herbicidal rate of 90% or more (almost completely withered))	0 (Herbicidal rate of 5% or less (almost no effect))	0 (Herbicidal rate of 5% or less (almost no effect))	5 (Herbicidal rate of 90% or more (almost completely withered))	3 (Herbicidal rate of 40% or more and less than 70%)	0 (Herbicidal rate of 5% or less (almost no effect))	0 (Herbicidal rate of 5% or less (almost no effect))	0 (Herbicidal rate of 5% or less (almost no effect))	0 (Herbicidal rate of 5% or less (almost no effect))	1 (Herbicidal rate of 5% or more and less than 20%)	5 (Herbicidal rate of 90% or more (almost completely withered))	4 (Herbicidal rate of 70% or more and less than 90%)	–	–	–	–
Cc1nn(C)c(=O)c(-c2c(-c3ccc(C#N)cc3)sc3ccc(F)cc23)c1O [2-340]	5 (Herbicidal rate of 90% or more (almost completely withered))	5 (Herbicidal rate of 90% or more (almost completely withered))	4 (Herbicidal rate of 70% or more and less than 90%)	–	–	–	–	–	–	–	–	–	–	–	–	–	–	5 (Herbicidal rate of 90% or more (almost completely withered))	5 (Herbicidal rate of 90% or more (almost completely withered))	5 (Herbicidal rate of 90% or more (almost completely withered))	herbicidal effect on K: Italian ryegrass (Italian ryegrass [1]; [5]): 5 (Herbicidal rate of 90% or more (almost completely withered)); herbicidal effect on L: windgrass (windgrass; [5]): 4 (Herbicidal rate of 70% or more and less than 90%); herbicidal effect on O: lambsquarters (lambsquarters [2]; [5]): 5 (Herbicidal rate of 90% or more (almost completely withered)); herbicidal effect on P: chickweed (chickweed; [5]): 5 (Herbicidal rate of 90% or more (almost completely withered)); F: southern crabgrass, herbicidal effect (criteria 0-5) (southern crabgrass; AAH 320 g/ha): 5 (Herbicidal rate of 90% or more (almost completely withered)); G: green foxtail, herbicidal effect (criteria 0-5) (green foxtail; AAH 320 g/ha): 5 (Herbicidal rate of 90% or more (almost completely withered)); I: wild oat, herbicidal effect (criteria 0-5) (wild oat; AAH 320 g/ha): 5 (Herbicidal rate of 90% or more (almost completely withered)); J: blackgrass, herbicidal effect (criteria 0-5) (blackgrass; AAH 320 g/ha): 5 (Herbicidal rate of 90% or more (almost completely withered)); K: Italian ryegrass, herbicidal effect (criteria 0-5) (Italian ryegrass [3]; AAH 320 g/ha): 5 (Herbicidal rate of 90% or more (almost completely withered)); M: velvetleaf, herbicidal effect (criteria 0-5) (velvetleaf; AAH 320 g/ha): 5 (Herbicidal rate of 90% or more (almost completely withered)); O: lambsquarters, herbicidal effect (criteria 0-5) (lambsquarters [4]; AAH 320 g/ha): 5 (Herbicidal rate of 90% or more (almost completely withered))
COc1cc(F)ccc1-c1sc2ccc(Cl)cc2c1-c1c(O)c(C)nn(C)c1=O [Compound No. 2-095, 4-(5-chloro-2-(4-fluoro-2-methoxyphenyl)benzo[b]thiophen-3-yl)-5-hydroxy-2,6-dimethylpyridazin-3(2H)-one]	2 (Herbicidal rate of 20% or more and less than 40%)	0 (Herbicidal rate of 5% or less (almost no effect))	0 (Herbicidal rate of 5% or less (almost no effect))	5 (Herbicidal rate of 90% or more (almost completely withered))	4 (Herbicidal rate of 70% or more and less than 90%)	5 (Herbicidal rate of 90% or more (almost completely withered))	0 (Herbicidal rate of 5% or less (almost no effect))	3 (Herbicidal rate of 40% or more and less than 70%)	5 (Herbicidal rate of 90% or more (almost completely withered))	3 (Herbicidal rate of 40% or more and less than 70%)	4 (Herbicidal rate of 70% or more and less than 90%)	5 (Herbicidal rate of 90% or more (almost completely withered))	4 (Herbicidal rate of 70% or more and less than 90%)	4 (Herbicidal rate of 70% or more and less than 90%)	3 (Herbicidal rate of 40% or more and less than 70%)	5 (Herbicidal rate of 90% or more (almost completely withered))	5 (Herbicidal rate of 90% or more (almost completely withered))	–	–	–	–
Cc1nn(C)c(=O)c(-c2c(-c3ccc(C#N)cc3)sc3ccc(Cl)cc23)c1O [2-112]	0 (Herbicidal rate of 5% or less (almost no effect))	2 (Herbicidal rate of 20% or more and less than 40%)	0 (Herbicidal rate of 5% or less (almost no effect))	–	–	–	–	–	–	–	4 (Herbicidal rate of 70% or more and less than 90%)	4 (Herbicidal rate of 70% or more and less than 90%)	5 (Herbicidal rate of 90% or more (almost completely withered))	5 (Herbicidal rate of 90% or more (almost completely withered))	5 (Herbicidal rate of 90% or more (almost completely withered))	4 (Herbicidal rate of 70% or more and less than 90%)	4 (Herbicidal rate of 70% or more and less than 90%)	5 (Herbicidal rate of 90% or more (almost completely withered))	4 (Herbicidal rate of 70% or more and less than 90%)	5 (Herbicidal rate of 90% or more (almost completely withered))	K: Italian ryegrass, herbicidal effect rating (Italian ryegrass [1]; [5]): 5 (Herbicidal rate of 90% or more (almost completely withered)); L: windgrass, herbicidal effect rating (windgrass; [5]): 5 (Herbicidal rate of 90% or more (almost completely withered)); O: lambsquarters, herbicidal effect rating (lambsquarters [2]; [5]): 5 (Herbicidal rate of 90% or more (almost completely withered)); P: chickweed, herbicidal effect rating (chickweed; [5]): 5 (Herbicidal rate of 90% or more (almost completely withered))
